From patent publication EP0603240B1, “SAFENING HERBICIDAL PYRAZOLYLSULFONYLUREAS” (priority 1991, dated 1993)

Key:
corn [1] = assay: Example 1, greenhouse Procedure II: antidotes against Herbicide No. 1; type: in vivo
Experimental: (§1) Containers were filled and compacted with a fumigated silt loam top soil to a depth of about 1.3 cm from the top of the container. A first container was designated as an untreated control, a second container was designated as a herbicide control, and a third container was designated as a herbicide + antidote test container. Each of the containers was seeded with a crop species. A measured amount of herbicide dispersed or dissolved in acetone was applied to a measured quantity of soil. To this same quantity of soil treated with herbicide, there was added a measured amount of antidote dispersed or dissolved in acetone. The quantity of soil treated with the herbicide and antidote was thoroughly mixed to incorporate the herbicide and antidote in the soil uniformly. The seed bed in the third container of soil was covered with the soil treated with the herbicide and antidote and the container was leveled. For each test series, the seed beds of the first and second containers were likewise covered by soil layers. the cover layer of the first container was not treated with herbicide or antidote.
(§2) The containers were then placed on a bench in a greenhouse and sub-irrigated as required for the duration of the test. […] Plant response is measured in terms of percent injury. Antidote efficacy is indicated as the difference in plant injury by the herbicide(s) without the antidote and with the antidote.
(§3) This procedure is the same as Procedure I, but modified in the manner that after incorporation of the chemicals (herbicide and antidote) the containers with the covered seedbed were treated with an initial overhead irrigation equivalent to 0.6 cm rainfall, then subsequently sub-irrigated as required on greenhouse benches.
In the series of greenhouse tests described below, for routine screening purposes the herbicide/antidote compositions were tested in crop/weed combinations involving corn as the crop and either or both of the weeds barnyardgrass (Echinochloa crusgalli), a monocotyledonous weed, and velvetleaf (Abutilon theophrasti), a dicotyledonous weed. In the tables below, these weeds are indicated by the symbols "BYG" and "VL", respectively.
This example was designed to investigate the antidotal efficacy of a plurality of antidotes against Herbicide No. 1 in corn in the presence of barnyard grass and velvetleaf. The antidotes used in this example were Antidote Nos. 1-10, 12, 13 and 15.
The test in this example was conducted as described above for Procedure II. The antidotes were applied to the soil cover layer by pipet after spraying on the herbicide followed by incorporation and simulated rain.

corn [2] = assay: Example 2, Procedure II: dichloroacetamide antidotes against Herbicide No. 1; type: in vivo
Experimental: as §1, §2, §3
In this example, a plurality of dichloroacetamide antidotes were tested for their safening efficacy against Herbicide No. 1 in corn, using Procedure II. In this test the weed was velvetleaf; barnyardgrass was not present in this test.

corn [3] = assay: Example 4, Procedure I: Antidote Nos. 15 and 16 against Herbicide No. 1; type: in vivo
Experimental: as §1, §2
This example describes tests with Antidote Nos. 15 and 16 to safen Herbicide No. 1 according to Procedure I using corn and the weeds barnyardgrass and velvetleaf as the test plants.

corn [4] = assay: Example 10, Procedure II: Herbicide No. 1 + propachlor (No. 5) with antidotes; type: in vivo
Experimental: as §1, §2, §3
In this test, the safening effect of various antidotes on the herbicidal combination of Herbicide No. 1 and another α-chloroacetanilide co-herbicide, propachlor, (Herbicide No. 5) was investigated. Propachlor is the active ingredient in the commercial herbicide RAMROD®. Procedure II was also used in this test as in the preceding example.

corn [5] = assay: Example 12, Procedure II: Herbicide No. 1 + acetochlor (No. 6) with thirteen antidotes; type: in vivo
How it was run: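 Herbicide and antidote in acetone were mixed into silt loam used to cover the corn seed bed, alongside untreated and herbicide-only controls. After incorporation, an overhead irrigation equal to 0.6 cm rainfall was given, then sub-irrigation in a greenhouse. Injury was scored as percent; safening is the injury difference without versus with antidote.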

corn [6] = assay: Example 11, Procedure II: Herbicide No. 1 + metazachlor (No. 14) with antidotes; type: in vivo
Experimental: as §1, §2, §3
In this example, yet another α-chloroacetanilide co-herbicide, metazachlor (Herbicide No. 14) was combined with Herbicide No. 1 for investigation of the effect of various safeners on that composition. Metazachlor is the active ingredient in the commercial herbicide BUTISAN® S, used here as a 500 g/L formulation.

corn [7] = assay: Example 15, Procedure II: Herbicide No. 1 + butylate (No. 10) with antidotes; type: in vivo
Experimental: as §1, §2, §3
This example describes experiments designed to investigate the antidotal efficacy of a plurality of antidotes against the herbicidal action of a combination of Herbicide No. 1 and butylate in corn and the prevalent weeds barnyardgrass and velvetleaf. The antidotes used in these experiments were Nos. 1-10, 12, 13 and 15.
The test procedure used in these experiments was that of Procedure II described above. The antidotes were applied to a soil cover layer by pipet after spraying the herbicides onto the soil, followed by incorporation and overhead irrigation.

corn [8] = assay: Example 25, greenhouse preemergence test: Antidote Nos. 1 and 2 against Herbicide Nos. 1-3; type: in vivo, Corn (Pioneer 3424 variety); conditions: Preemergence
Experimental: The chemicals were tested in both preemergence and post-emergence modes of application. The herbicides were prepared and applied as wettable powders; dichlormid was applied as an emulsifiable concentrate, while the naphthalic anhydride was applied as a coating on the corn seed prior to planting.
Test data from the preemergence tests are shown in Table 25A and from the post-emergence tests in Table 25B. In the tables, the concentration of chemicals is shown in terms of active ingredient in grams per hectare (G/ha); concentrations of the naphthalic anhydride were not measured per se, but were present as in conventional, normally-coated applications. Corn injury is shown in terms of percent inhibition of growth.

[9] = Herbicide No.1 0.14 kg/ha + Herbicide No.5 4.48 kg/ha, antidote rate 2.24 kg/ha
[10] = Herbicide No.1 0.14 kg/ha + Herbicide No.5 4.48 kg/ha, antidote rate 8.96 kg/ha
[11] = Herbicide No.1 0.56 kg/ha + Herbicide No.5 4.48 kg/ha, antidote rate 2.24 kg/ha
[12] = Herbicide No.1 0.56 kg/ha + Herbicide No.5 4.48 kg/ha, antidote rate 8.96 kg/ha
[13] = Herbicide No.1 0.14 kg/ha + Herbicide No.6 2.24 kg/ha, antidote rate 2.24 kg/ha
[14] = Herbicide No.1 0.14 kg/ha + Herbicide No.6 2.24 kg/ha, antidote rate 8.96 kg/ha
[15] = Herbicide No.1 0.56 kg/ha + Herbicide No.6 2.24 kg/ha, antidote rate 2.24 kg/ha
[16] = Herbicide No.1 0.56 kg/ha + Herbicide No.6 2.24 kg/ha, antidote rate 8.96 kg/ha
[17] = Herbicide No.1 0.56 kg/ha + Herbicide No.14 3.36 kg/ha, antidote rate 2.24 kg/ha
[18] = Herbicide No.1 0.56 kg/ha + Herbicide No.14 3.36 kg/ha, antidote rate 8.96 kg/ha
[19] = Herbicide No.1 1.12 kg/ha + Herbicide No.14 3.36 kg/ha, antidote rate 2.24 kg/ha
[20] = Herbicide No.1 1.12 kg/ha + Herbicide No.14 3.36 kg/ha, antidote rate 8.96 kg/ha
[21] = Herbicide No.1 0.56 kg/ha + Herbicide No.10 6.72 kg/ha, antidote rate 2.24 kg/ha
[22] = Herbicide No.1 0.56 kg/ha + Herbicide No.10 6.72 kg/ha, antidote rate 8.96 kg/ha
[23] = Herbicide No.1 1.12 kg/ha + Herbicide No.10 6.72 kg/ha, antidote rate 2.24 kg/ha
[24] = Herbicide No.1 1.12 kg/ha + Herbicide No.10 6.72 kg/ha, antidote rate 8.96 kg/ha

SMILES | % Injury Corn (corn [4]; [9]) [%] | % Injury Corn (corn [4]; [10]) [%] | % Injury Corn (corn [4]; [11]) [%] | % Injury Corn (corn [4]; [12]) [%] | % Injury Corn (corn [5]; [13]) [%] | % Injury Corn (corn [5]; [14]) [%] | % Injury Corn (corn [5]; [15]) [%] | % Injury Corn (corn [5]; [16]) [%] | % Injury Corn (corn [6]; [17]) [%] | % Injury Corn (corn [6]; [18]) [%] | % Injury Corn (corn [6]; [19]) [%] | % Injury Corn (corn [6]; [20]) [%] | % Injury Corn (corn [7]; [21]) [%] | % Injury Corn (corn [7]; [22]) [%] | % Injury Corn (corn [7]; [23]) [%] | % Injury Corn (corn [7]; [24]) [%] | also measured
CC1(C)OC(c2ccco2)CN1C(=O)C(Cl)Cl (stereo not drawn) [compound 15] | 0 | 0 | 10 | 10 | 15 | 10 | 20 | 5 | 65 | 65 | 25 | 40 | 20 | 10 | 15 | 15 | % Injury Corn (corn [1]; Herb. No. 1 0.14 kg/ha + antidote 2.24 kg/ha): 5%; % Injury Corn (corn [1]; Herb. No. 1 0.56 kg/ha + antidote 2.24 kg/ha): 5%; % Injury Corn (corn [2]; Herb. No. 1 0.14 kg/ha + antidote 0.56 kg/ha): 5%; % Injury Corn (corn [3]; Herb. No. 1 6.72 kg/ha + antidote 0.56 kg/ha): 35%; % Injury Corn (corn [3]; Herb. No. 1 6.72 kg/ha + antidote 2.24 kg/ha): 50%
C=CCN(CC=C)C(=O)C(Cl)Cl [compound 1] | 10 | 0 | 15 | 0 | 10 | 10 | 15 | 15 | 25 | 50 | 45 | 50 | 15 | 10 | 20 | 30 | % Inhibition Corn (corn [8]; Herbicide No. 1 0.25 G/ha + antidote 7.41 G/ha): 23.2%; % Inhibition Corn (corn [8]; Herbicide No. 1 0.74 G/ha + antidote 7.41 G/ha): 28.4%; % Inhibition Corn (corn [8]; Herbicide No. 1 2.5 G/ha + antidote 7.41 G/ha): 26.2%; % Inhibition Corn (corn [8]; Herbicide No. 2 0.25 G/ha + antidote 7.41 G/ha): 26.5%; % Inhibition Corn (corn [8]; Herbicide No. 2 0.74 G/ha + antidote 7.41 G/ha): 28.9%; % Inhibition Corn (corn [8]; Herbicide No. 2 2.5 G/ha + antidote 7.41 G/ha): 37.3%; % Inhibition Corn (corn [8]; Herbicide No. 3 0.07 G/ha + antidote 7.41 G/ha): 9.3%; % Inhibition Corn (corn [8]; Herbicide No. 3 0.25 G/ha + antidote 7.41 G/ha): 43.0%; % Inhibition Corn (corn [8]; Herbicide No. 3 0.74 G/ha + antidote 7.41 G/ha): 83.9%; inhibition at 7.41 g/ha (corn [8]; Zea mays, pre-emergence, antidote alone 7.41 G/ha, no herbicide, read-out: % Inhibition Corn): 21%
CC1(C(Cl)Cl)OCCO1 [compound 13] | 0 | 15 | 45 | 10 | 10 | 30 | 35 | 40 | 75 | 40 | 60 | 70 | 10 | 15 | 20 | 0 | –
O=C1OC(=O)c2cccc3cccc1c23 [compound 2] | – | – | – | – | – | – | – | – | – | – | – | – | – | – | – | – | % Inhibition Corn (corn [8]; Herbicide No. 1 0.25 G/ha + antidote as seed treatment (concentration not measured)): 18.2%; % Inhibition Corn (corn [8]; Herbicide No. 1 0.74 G/ha + antidote as seed treatment (concentration not measured)): 31.2%; % Inhibition Corn (corn [8]; Herbicide No. 2 0.25 G/ha + antidote as seed treatment (concentration not measured)): 31.5%; % Inhibition Corn (corn [8]; Herbicide No. 2 0.74 G/ha + antidote as seed treatment (concentration not measured)): 18.9%; % Inhibition Corn (corn [8]; Herbicide No. 2 2.5 G/ha + antidote as seed treatment (concentration not measured)): 31.9%; % Inhibition Corn (corn [8]; Herbicide No. 3 0.07 G/ha + antidote as seed treatment (concentration not measured)): 13.2%; % Inhibition Corn (corn [8]; Herbicide No. 3 0.25 G/ha + antidote as seed treatment (concentration not measured)): 29.3%; % Inhibition Corn (corn [8]; Herbicide No. 3 0.74 G/ha + antidote as seed treatment (concentration not measured)): 46.9%; % Inhibition Corn (corn [8]; antidote alone as seed treatment (concentration not measured), no herbicide): 17.4%
CC1(C)OC(c2ccco2)CN1C(=O)C(Cl)Cl (stereo not drawn) [Antidote No. 15, Oxazolidine, 3-(dichloroacetyl)-5-(2-furanyl)-2,2-dimethyl] | – | – | – | – | – | – | – | – | – | – | – | – | – | – | – | – | safening of corn, assessment in words (corn [2]; Herbicide No. 1, Table 2): most safening and commercial-level protection for corn, at all ratios tested; % Injury Corn (corn [3]; Herb. No. 1 4.48 kg/ha + antidote 0.56 kg/ha): 10%; % Injury Corn (corn [3]; Herb. No. 1 4.48 kg/ha + antidote 2.24 kg/ha): 13%; safening of corn, assessment in words (corn [3]; Herbicide No. 1, Table 4): substantial safening of Herbicide No. 1; safening of corn, assessment in words (corn [4]; Herbicide Nos. 1 and 5, Table 10): best safening effect; safening of corn, assessment in words (corn [6]; Herbicides 1 and 14, Table 11): outperformed the antidotes (2 and 13) of other chemistries
